“And” between values parts separate entries of the source, which are not always exact repeats. Identical values can stand only once. After the bases stand the sugars from the 5' end (letter, count) and the backbone: PS all phosphorothioate, else s phosphorothioate and o phosphodiester by linkage. Methylation of C is not given here. e = 2'-O-(2-methoxyethyl) (MOE); k = constrained ethyl (cEt); d = 2'-deoxy (DNA)
Biological target: SOD1
Conditions: ASO

ATGTTTATCAGGATAC (sugars ekddddddddekekee, linkages s1 o1 s8 o3 s2)
target mRNA inhibition (A431, 0.12 µM): 0%
target mRNA inhibition (A431, 0.6 µM): 7%
target mRNA inhibition (A431, 3 µM): 26%
target mRNA inhibition (A431, 15 µM): 59%
target mRNA inhibition (HepG2, 0.222 µM): 64%
target mRNA inhibition (HepG2, 0.667 µM): 81%
target mRNA inhibition (HepG2, 2 µM): 90%
target mRNA inhibition (HepG2, 6 µM): 94%

TTAGTTTGAATTTGGAT (sugars e2 k2 d8 k2 e3, PS)
target mRNA inhibition (HepG2, 5 µM): 31%

TTTTTATTCACAGGCTT (sugars e3 k2 d7 k2 e3, PS)
target mRNA inhibition (HepG2, 3 µM): 31%

ATCAGTTTCTCACTACA (sugars e2 k2 d8 k2 e3, PS)
target mRNA inhibition (HepG2, 5 µM): 31%

TGTTTAATGTTTATCA (sugars kekeddddddddekek, linkages s1 o3 s8 o1 s2)
target mRNA inhibition (A431, 0.12 µM): 6%
target mRNA inhibition (A431, 0.6 µM): 14%
target mRNA inhibition (A431, 3 µM): 15%
target mRNA inhibition (A431, 15 µM): 32%
target mRNA inhibition (HepG2, 0.222 µM): 42%
target mRNA inhibition (HepG2, 0.667 µM): 54%
target mRNA inhibition (HepG2, 2 µM): 69%
target mRNA inhibition (HepG2, 6 µM): 86%

GGCGATCCCAATTACACCAC (sugars e5 d10 e5, linkages s1 o3 s11 o3 s1)
target mRNA inhibition (A431, 0.12 µM): 0%
target mRNA inhibition (A431, 0.6 µM): 0%
target mRNA inhibition (A431, 3 µM): 0%
target mRNA inhibition (A431, 15 µM): 30%
target mRNA inhibition (HepG2, 0.222 µM): 24%
target mRNA inhibition (HepG2, 0.667 µM): 34%
target mRNA inhibition (HepG2, 2 µM): 79%
target mRNA inhibition (HepG2, 6 µM): 55%

ATACAGGGTTTTTATTC (sugars e3 k2 d7 k2 e3, PS)
target mRNA inhibition (HepG2, 3 µM): 3%

CACCACAAGCCAAACGA (sugars e2 k2 d8 k2 e3, PS)
target mRNA inhibition (HepG2, 4 µM): 48%

CCCTTCAGCACGCACAC (sugars e2 k2 d8 k2 e3, PS)
target mRNA inhibition (HepG2, 0.1875 µM): 25%
target mRNA inhibition (HepG2, 0.75 µM): 22%
target mRNA inhibition (HepG2, 2 µM): 50%
target mRNA inhibition (HepG2, 3 µM): 72%
target mRNA inhibition (HepG2, 4 µM): 74%
target mRNA inhibition (HepG2, 12 µM): 79%

TCACTACAGGTACTTTA (sugars e2 k2 d9 k2 e2, PS)
target mRNA inhibition (HepG2, 5 µM): 35%

TCATAATAAGTGCCATA (sugars e2 k2 d9 k2 e2, PS)
target mRNA inhibition (HepG2, 5 µM): 34%

TTTATTCACAGGCTTGA (sugars e2 k2 d9 k2 e2, PS)
target mRNA inhibition (HepG2, 5 µM): 55%

GGATTAAAGTGAGGACC (sugars e3 k2 d7 k2 e3, PS)
target mRNA inhibition (HepG2, 3 µM): 30%

AAGTTTAATACCCATCT (sugars e3 k2 d7 k2 e3, PS)
target mRNA inhibition (HepG2, 3 µM): 12%

TCACAGGCTTGAATGAC (sugars e2 k2 d9 k2 e2, PS)
target mRNA inhibition (HepG2, 5 µM): 46%

GCCGTCGCCCTTCAGCA (sugars e3 k2 d7 k2 e3, PS)
target mRNA inhibition (HepG2, 3 µM): 33%

TCACAGGCTTGAATGAC (sugars e2 k2 d8 k2 e3, PS)
target mRNA inhibition (HepG2, 5 µM): 28%

ACACCTTCACTGGTCCA (sugars e3 k2 d7 k2 e3, PS)
target mRNA inhibition (HepG2, 3 µM): 20%

TTGGATTCTTTTAATAG (sugars e2 k2 d9 k2 e2, PS)
target mRNA inhibition (HepG2, 5 µM): 8%

AGATCACAGAATCTTCAATA (sugars e5 d10 e5, PS)
target mRNA inhibition (HepG2, 5 µM): 14% and 29%

CAGGATAACAGATGAGT (sugars e3 k2 d7 k2 e3, PS)
target mRNA inhibition (HepG2, 0.1875 µM): 45%
target mRNA inhibition (HepG2, 0.75 µM): 72%
target mRNA inhibition (HepG2, 3 µM): 65% and 86%
target mRNA inhibition (HepG2, 12 µM): 92%

CAAGCCAAACGACTTCCAGC (sugars e5 d10 e5, PS)
target mRNA inhibition (HepG2, 0.1875 µM): 9%
target mRNA inhibition (HepG2, 0.75 µM): 27%
target mRNA inhibition (HepG2, 3 µM): 59%
target mRNA inhibition (HepG2, 5 µM): 54%
target mRNA inhibition (HepG2, 12 µM): 89%

GCCTCATAATAAGTGCC (sugars e2 k2 d8 k2 e3, PS)
target mRNA inhibition (HepG2, 5 µM): 41%

AATTCTGACAAGTTTAA (sugars e3 k2 d7 k2 e3, PS)
target mRNA inhibition (HepG2, 3 µM): 15%

AAGTCACACAATTACAC (sugars e2 k2 d8 k2 e3, PS)
target mRNA inhibition (HepG2, 5 µM): 41%

ACAGGGTTTTTATTCAC (sugars e3 k2 d7 k2 e3, PS)
target mRNA inhibition (HepG2, 3 µM): 10%

TAATACCCATCTGTGAT (sugars e2 k2 d8 k2 e3, PS)
target mRNA inhibition (HepG2, 5 µM): 25%

GATACATTTCTACAGCT (sugars e2 k2 d9 k2 e2, PS)
target mRNA inhibition (HepG2, 0.1875 µM): 0%
target mRNA inhibition (HepG2, 0.75 µM): 45%
target mRNA inhibition (HepG2, 3 µM): 75%
target mRNA inhibition (HepG2, 4 µM): 77%
target mRNA inhibition (HepG2, 12 µM): 97%

TACAAATCTTCCAAGTG (sugars e3 k2 d7 k2 e3, PS)
target mRNA inhibition (HepG2, 3 µM): 17%

TACAGGGTTTTTATTCA (sugars e3 k2 d7 k2 e3, PS)
target mRNA inhibition (HepG2, 3 µM): 11%

TTCATTTCCACCTTTGC (sugars e3 k2 d7 k2 e3, PS)
target mRNA inhibition (HepG2, 3 µM): 33%
